{
  "source": "patent US6864093B1",
  "about": "“Method of identifying and treating invasive carcinomas” (University of Central Florida, priority 2000, dated 2005)",
  "type_in_all_cases": "cell-based, human",
  "key": {"[1]": {"test_system": "prostasin gene promoter (MDA-MB-435s cells)", "assay": "demethylation of prostasin gene promoter, genomic Southern blot", "details": "500 nM, 8 days", "text": "(§1) High molecular weight genomic DNA was isolated from various cell lines as described in Chai, K X, Ward, D C, Chao, J, et al Molecular Clonings Sequence Analysis and Chromosomal Localization of the Human Protease Inhibitor 4 (kallistatin) gene (P14) Genomics 1994; 23:370-8. Genomic DNA frm each cell line was digested with the following restriction enzyme combinations:Xho I/BamH I (X/B), Xho I/BamH I/Hha (X/B/Hh), Xho I/BamH I/Aci I (X/B/A), Xho I/Bam H I.Bsa I (X/B/Bs),Xho I/Bam H I/Msp I(X/B/M) or Xho I/Bam H I/Hpa II(X/B/H) using 10 μg of DNA per digestion combination. The X/B cutting sites flank the CpG sies be to be investigated for differential methylation by the methylation-sensitive restriction endonucleases. The digests were resolved in a 0.8% agarose gel and analyzed by Southern blot hybridization as described in Chai, K X, Ward, D C, Chao, J et al. A nick translated prostasin promoter probe (bases 703-1,649) of the prostasin gene sequence, Genbank accession number U33446) was used for the hybridization. The base numbering of the prostasin gene sequence was described in Yu et al. […]"}, "[2]": {"test_system": "prostasin mRNA (MDA-MB-231 cells)", "assay": "reactivation of prostasin expression, RT-PCR/Southern blot", "details": "MDA-MB-231, 500 nM 5-aza-2′-dC 24 hr followed by 95% ethanol (solvent for TSA)", "procedure": "(§2) Cells grown to 80% confluence (in […] tissue culture dish) were lysed directly with 1 ml of the Trizol Reagent (life Technologies) and RNA was isolated according to the manufacturer's protocol. The human prostasin-specific RT-PCR/Southern blot analysis was performed as described in Yu, J X, and Chao,J Molecular Cloning, tissue-specific expression and cellular localization of human prostasin mRNA. J Biol Chem 1995; 270:12483-4. One microgram of total RNA was used in the RT-PCR with 2 human prostasin gene-specific oligonucleotide primers, and a Southern blot of the resolved RT-PCR samples was probed with a third prostasin gene-specific oligonucleotide, detecting an amplified 232 bp fragment. A co-amplification of the β-actin mRNA for control of RNA quality and quantity was performed as described in Chen Hodge and Guarda, et al.\n(§3) For demethylation of prostasin gene promoter, MDA-MB-231 and MDA-MB-435s cells were seeded in 100 mm dishes at an initial density of 50% confluence and cultured in the presence of 500 nM 5-aza-2′-deoxycytidine (5-aza-2′dC; Sigma-Aldrich) for 8 days with renewal of medium and 5-aza-2′-dC performed at 2 day intervals. Genomic DNA was then isolated for Southern blot analysis as described. For reactivation of prostasin expression, MDA-MB-231 and MDA-MB-435s cells were seeded in 60 mm dishes at 80% confluence and cultured in the presence of 500 nM 5-aza-2′-dC for 24 hr, and were then treated for an additional 24 hr with either 1 μM trichostatin A (TSA; Sigma Aldrich) or an equal volume of 95% ethanol used to dissolve TSA. For measuring time-dependence of prostatin gene reactivation, cells were treated as described above but were harvested at 6 or 12 hr after the addition of TSA. RNA was isolated for prostasin-specifric RT-PCR/Southern blot analysis as described. The MCF-7 and the MDA-MB-453 cell ines were subjected tot the same 5-aza-2′-dC/TSA treatment and prostasin RT-PCR Southern blot analysis procedures."}, "[3]": {"test_system": "prostasin mRNA (MDA-MB-435s cells)", "assay": "reactivation of prostasin expression, RT-PCR/Southern blot", "procedure": "as §2, §3"}, "[4]": {"test_system": "prostasin mRNA (PC-3 cells)", "assay": "reactivation of prostasin expression, RT-PCR/Southern blot", "details": "PC-3, after 8 days 5-aza-2′-dC", "procedure": "as §2\n(§4) Du-145 and […] an additional 24 hours with either 1 μM trichostatin A (TSA, Sigma-Aldrich Co.) or an equal volume of 95% ethanol used to dissolve TSA. TNA was isolated for prostasin-specific RT-PCR/Southern blot analysis as described in example 1."}, "[5]": {"test_system": "prostasin mRNA (DU-145 cells)", "assay": "reactivation of prostasin expression, RT-PCR/Southern blot", "details": "DU-145, after 8 days 5-aza-2′-dC", "procedure": "as §2, §4"}, "[6]": {"test_system": "prostasin gene promoter (DU-145 cells)", "assay": "demethylation of prostasin gene promoter, genomic Southern blot", "details": "DU-145, 8 days", "text": "as §1"}, "[7]": {"test_system": "prostasin gene promoter (PC-3 cells)", "assay": "demethylation of prostasin gene promoter, genomic Southern blot", "details": "PC-3, 8 days", "text": "as §1"}},
  "data": [
    {"smiles": "Nc1ncn([C@H]2C[C@H](O)[C@@H](CO)O2)c(=O)n1", "note": "[5-aza-2′-dC, 5-aza-2′-deoxycytidine]", "values": [
      {"measurement": "demethylation of prostasin promoter-exon 1 region", "setting": "[1]", "result": "significant level of demethylation"},
      {"measurement": "prostasin mRNA re-expression", "setting": "[2]", "result": "did not result in prostasin mRNA re-expression"},
      {"measurement": "prostasin mRNA re-expression", "setting": "[3]; 500 nM 5-aza-2′-dC 24 hr followed by 95% ethanol (solvent for TSA)", "result": "did not result in prostasin mRNA re-expression"},
      {"measurement": "prostasin mRNA expression", "setting": "[3]; after 8-day 5-aza-2′-dC treatment", "result": "failed to detect prostasin mRNA expression"},
      {"measurement": "prostasin mRNA expression", "setting": "[4]", "result": "no prostasin mRNA expression was detected"},
      {"measurement": "prostasin mRNA expression", "setting": "[5]", "result": "no prostasin mRNA expression was detected"},
      {"measurement": "demethylation of prostasin promoter", "setting": "[6]", "result": "significant level of demethylation"},
      {"measurement": "demethylation of prostasin promoter", "setting": "[7]", "result": "significant level of demethylation"}
    ]}
  ]
}
